Data: patent US6448430B1, “Process for the preparation of aryl carboxylate esters” (priority 1999, dated 2002)

Assay: Solubility of NOBS in selected solvents
Type: physicochemical
Conditions: TFA versus acetic acid; ambient temperature
Description: The solvent properties of TFA are unique and highly advantageous in the synthesis of phenolsulfonate esters. […] It is notable that the only solvent in which NOBS is more soluble than water is TFA. I have found no better solvent for NOBS than TFA. This is surprising. […] It is likely that hydrogen bonding in TFA facilitates the solvation of sulfonate anions but it is notable, in contrast, that such effects are much weaker in acetic acid. Furthermore, while it is known in the art that dimethyl sulfoxide (DMSO) and dimethylformamide (DMF) are relatively good solvents for benzenesulfonate esters they are much weaker solvents than TFA and because TFA has a much lower boiling point than these dipolar aprotic solvents it is the only good solvent for benzenesulfonate esters which can be readily stripped from product solutions and then purified and recycled with relative ease.

- Amount of NOBS dissolved by TFA relative to the amount soluble in acetic acid: more than ten times
SMILES: CCCCCCCCC(=O)Oc1ccc(S(=O)(=O)[O-])cc1.[Na+] [NOBS, sodium 4-(nonanoyloxy)benzene sulfonate]
